In US6878751B1, “Administration of resveratrol to treat inflammatory respiratory disorders” (Imperial College of Science Technology and Medicine, priority 2000, dated 2005):

Key:
IL-8 release, A549 cells = assay: IL-8 release (ELISA) in IL-1β stimulated A549 cells; assay type: cell-based; details: Homo sapiens, 1 ng/ml IL-1β, read-out: EC50 for inhibition of the release of IL-8
Description: The human airway epithelial cell line A549 may be employed to study resveratrol inhibition of the release of IL-8 (interleukin 8) and GM-CSF (granulocyte macrophage-colony stimulating factor) by a 1 ng/ml stimulation with IL-1β (interleukin 1β). A549 cells, BEAS-2B cells and 16HBE-16o^− cells were stimulated with 1 ng/ml levels of IL-1β in the presence of resveratrol.
Cells, including the A549 cells, were cultured in Dulbecco's modified Eagle's medium (DMEM) 10% (v/v) fetal calf serum (FCS), 100 μg/ml penicillin and 100 μg/ml streptomycin. IL-8 release was measured by commercially available ELISA kit (R&D Systems).

[1] = system: patients resistant to existing pulmonary steroid therapy; assay: Resveratrol supplementation vs increasing steroid dose in steroid resistant asthma (Example 7); assay type: in vivo, human; details: oral or pulmonary resveratrol added to inhaled steroid
Description: Instead of steroid naive chid asthmatic patients (children are chosen because of the increased gravity of systemic endocrine effects for children, but adults can be analogously studied) selected in Example 6, patients reesistant to existing pulmonary steroid therapy are selected. The study is otherwise analogous to the study in […], except that in the first two groups the oral or inhaled resveratrol supplements the inhaled steroid dose being administered prior to the beginning of the evaluation, while the third group has the dosage of inhaled steroid being administered prior to the study doubled. Alternatively the third group can receive oral prednisone in the appropriate systemic dose. The evaluation is otherwise performed identically to that in Example 6.

iNOS mRNA = iNOS mRNA expression by RT-PCR in cytomix-treated primary epithelial cells; assay type: cell-based, human; details: primary epithelial cells treated 4 hours with cytomix
Description: Human primary epithelial cells are cultured from normal donor tissue. Explant cultures of tissue obtained from normal human lung transplant donors provided human primary epithelial (HPE) cells. The HPE cells were cultured in Ham's F12 nutrient medium containing 5% (v/v) fetal calf serum (FCS), 1 μM hydrocortisone, 5 ng/ml EGF (epithelial growth factor), 10 μg/ml insulin, 10 nM retinoic acid, 0.5 μg/ml transferrin, 2 μg/ml triiodothyronine, 1.5 μg/ml NaHCO3, 100 μg/ml penicillin, 100 μg/ml streptomycin and 0.25 μg/m amphotericin B; the cells were incubated at 37° C. in a humidified atmosphere containing 95% (v/v) air, 5% (v/v) CO2. The HPE cells were cultured for the last 24 hours prior to the experimental treatments under the same conditions except that additive free Ham's F12 media was substituted for the supplemented Ham's F12 media described above.
Expression of mRNA for iNOS was evaluated by RT-PCR of RNA extracted from the cells using the Qiagen RNeasy mini kit as directed by the manufacturer (Crawley, Sussex, U.K.). RT-PCR was performed according to routine methods. […]

[2] = system: NF-κB dependent transcription; assay: NF-κB luciferase reporter in stably transfected A549 cells; assay type: cell-based, human
Description: The expression of inflammatory genes was then evaluated in cells transformed with luciferase reporter genes containing sites for transcription factors (Tf, Tfs). The A549 cells were stably transfected by routine methods with luciferase reporters containing the transcription factors NF-κB, TRE (AP-1, TPA responsive element) and CRE (cAMP responsive element). Luciferase activity of cell lysates resuspended in […] cell lysis buffer mixed (40 mml resuspended lysate: 40 mml assay reagent) was measured using the Luciferase Assay System (Promega), with emitted light measured by a Turner DesignsTD-20/20 luminometer (Steptech Instruments Ltd., Stevenage, U.K.)

## Oc1ccc(/C=C/c2cc(O)cc(O)c2)cc1 [Resveratrol, 3,5,4′-trihydroxystilbene]
IL-8 release, A549 cells
  EC50: 72 ± 11 µM
[1]
  systemic side effects compared with doubling steroid dosage: reduced systemic side effects compared with doubling steroid dosage
[1]; steroid resistant asthma
  efficacy as supplement to existing steroid therapy vs doubling inhaled steroid dose: as or more effective as supplements to existing steroid therapy for antiinflammatory treatment than doubling inhaled steroid dose
iNOS mRNA
  inhibition of iNOS expression as measured by mRNA: inhibited iNOS expression
[2]
  extent of inhibition of NF-κB dependent transcription: completely
[2]; Homo sapiens, read-out: EC50 for inhibition of NF-κB dependent transcription
  EC50: 21 ± 7 µM
